According to ChEMBL document CHEMBL1136101, “An evaluation of a C-glucuronide as a liver targeting group: conjugate of a glucocorticoid antagonist” (Bioorg Med Chem Lett, 2003):

Columns and labels:
[1] = Half-life period was determined; format: ADME
[2] = biological target: T1, Glucocorticoid receptor (Homo sapiens, UniProt P04150); assay: Inhibition of Dexamethasone stimulated transcriptional activity in CHO cells expressing glucocorticoid receptor; format: functional, cell-based
T1 sequence (P04150 whole entry): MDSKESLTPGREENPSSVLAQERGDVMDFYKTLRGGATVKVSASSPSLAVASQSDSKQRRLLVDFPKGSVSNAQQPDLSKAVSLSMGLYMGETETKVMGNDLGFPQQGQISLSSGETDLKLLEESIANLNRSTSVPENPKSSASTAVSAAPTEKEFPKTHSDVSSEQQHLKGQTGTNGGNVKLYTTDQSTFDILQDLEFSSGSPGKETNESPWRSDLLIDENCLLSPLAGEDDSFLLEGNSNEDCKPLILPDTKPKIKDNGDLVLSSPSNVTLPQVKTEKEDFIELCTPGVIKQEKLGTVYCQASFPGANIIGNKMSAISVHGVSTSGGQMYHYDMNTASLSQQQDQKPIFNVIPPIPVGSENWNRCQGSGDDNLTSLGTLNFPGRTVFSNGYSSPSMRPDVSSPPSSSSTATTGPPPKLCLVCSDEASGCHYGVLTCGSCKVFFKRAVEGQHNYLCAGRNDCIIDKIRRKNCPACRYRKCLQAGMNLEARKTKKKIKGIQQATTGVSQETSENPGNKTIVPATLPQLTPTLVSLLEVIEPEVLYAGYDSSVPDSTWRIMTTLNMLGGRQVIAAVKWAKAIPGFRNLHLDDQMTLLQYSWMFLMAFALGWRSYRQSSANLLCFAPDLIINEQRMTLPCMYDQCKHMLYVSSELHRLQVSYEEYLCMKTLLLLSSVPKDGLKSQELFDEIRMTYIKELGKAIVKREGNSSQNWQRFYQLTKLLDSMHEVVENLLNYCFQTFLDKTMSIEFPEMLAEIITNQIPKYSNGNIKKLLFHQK

[3] = Plasma clearance by iv administration at a dose 5 mg/kg; details: read-out: Clp (converted)
[4] = biological target: T1, Glucocorticoid receptor; assay: Inhibition of Dexamethasone binding to Glucocorticoid receptor
[5] = biological target: T2, Glucocorticoid receptor (Rattus norvegicus, UniProt P06536); assay: Inhibition of prednisilone-induced tyrosine aminotransferase (TAT) activity in rat hepatocytes; format: cell-based, Hepatocyte
T2 sequence (P06536 whole entry): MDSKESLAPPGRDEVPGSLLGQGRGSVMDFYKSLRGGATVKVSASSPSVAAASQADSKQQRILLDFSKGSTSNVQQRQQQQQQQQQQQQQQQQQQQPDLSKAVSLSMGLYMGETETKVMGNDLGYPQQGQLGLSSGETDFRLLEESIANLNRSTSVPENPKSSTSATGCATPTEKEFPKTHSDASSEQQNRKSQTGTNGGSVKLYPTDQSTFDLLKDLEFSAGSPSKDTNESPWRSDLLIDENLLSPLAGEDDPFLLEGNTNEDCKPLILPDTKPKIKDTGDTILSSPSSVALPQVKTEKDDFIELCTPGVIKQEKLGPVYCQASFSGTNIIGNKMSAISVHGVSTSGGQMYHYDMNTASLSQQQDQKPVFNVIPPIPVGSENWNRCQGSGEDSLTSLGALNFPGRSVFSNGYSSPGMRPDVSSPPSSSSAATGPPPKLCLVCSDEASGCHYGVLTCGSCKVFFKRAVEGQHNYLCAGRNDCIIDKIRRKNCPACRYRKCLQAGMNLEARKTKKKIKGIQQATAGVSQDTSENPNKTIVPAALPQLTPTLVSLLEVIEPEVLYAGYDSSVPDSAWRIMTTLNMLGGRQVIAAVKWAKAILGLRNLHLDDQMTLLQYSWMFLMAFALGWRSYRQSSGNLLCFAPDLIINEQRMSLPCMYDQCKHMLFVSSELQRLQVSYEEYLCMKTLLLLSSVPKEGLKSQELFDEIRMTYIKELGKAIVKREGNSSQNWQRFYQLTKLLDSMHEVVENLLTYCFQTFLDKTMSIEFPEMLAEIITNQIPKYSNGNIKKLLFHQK

[6] = Plasma concentration at 7 hr after intravenous dosing; format: ADME

half-life [1]: 108 min | IC50 [2]: 550 nM | clearance [3]: 88.3 mL/min/kg | IC50 [4]: 16.7 nM | IC50 [5]: 2800 nM | concentration at 7 h [6]: 3 ng/mL
Compound: CC#C[C@]1(O)CC[C@H]2[C@@H]3CCC4=CC(=O)CCC4=C3[C@@H](c3ccc(N(C)CCCC4OC(C(=O)O)C(O)C(O)C4O)cc3)C[C@@]21C (stereo partly specified)
